Source: patent US20060089375A1, “Pyrazolo[3,4-b] pyridine compounds, and their use as phosphodiesterase inhibitors” (priority 2002, published 2006)

target: T1, PDE4B (human recombinant) (Homo sapiens, UniProt Q07343); assay: Inhibition of PDE4B activity: radioactive SPA or IMAP Fluorescence Polarisation (FP) assay; format: biochemical; conditions: PDE4B inhibitory activity, one reading or average of ca. 2-6 readings, read-out: PDE4B pIC50 (± about 0.5) (converted)
T1 construct: made in house
Excerpt: Human recombinant PDE4B, in particular the 2B splice variant thereof (HSPDE4B2B), is disclosed in WO 94/20079 and also M. M. McLaughlin et al., “A low Km, rolipram-sensitive, cAMP-specific phosphodiesterase from human brain: cloning and expression of cDNA, biochemical characterisation of recombinant protein, and tissue distribution of mRNA”, J. Biol. Chem., 1993, 268, 6470-6476. For example, in Example 1 of WO 94/20079, human recombinant PDE4B is described as being expressed in the PDE-deficient yeast Saccharomyces cerevisiae strain GL62, e.g. after induction by addition of 150 uM CuSO4, and 100,000×g supernatant fractions of yeast cell lysates are described for use in the harvesting of PDE4B enzyme.
The ability of compounds to inhibit catalytic activity at PDE4B or 4D (human recombinant), PDE3 (from bovine aorta), PDE5 (human recombinant) or PDE6 (from bovine retina) was determined by Scintillation Proximity Assay (SPA) in 96-well format. Test compounds (preferably as a solution in DMSO, e.g. 0.5 to 1 microlitre (ul) volume) were preincubated at ambient temperature (room temperature, e.g. 19-23° C.) in Wallac Isoplates (code 1450-514) with PDE enzyme in 50 mM Tris-HCl buffer pH 7.5, 8.3 mM MgCl2, 1.7 mM EGTA, 0.05% (w/v) bovine serum albumin for 10-30 minutes (usually 30 minutes). The enzyme concentration was adjusted so that no more than 20% hydrolysis of the substrate defined below occurred in control wells without compound, during the incubation. For the PDE3, PDE4B and PDE4D assays, [5′,8-^3H]Adenosine 3′,5′-cyclic phosphate (Amersham Pharmacia Biotech, code TRK.559; or Amersham Biosciences UK Ltd, Pollards Wood, Chalfont St Giles, Buckinghamshire HP8 4SP, UK) was added to give 0.05 uCi per well and ˜10 nM final concentration. For the PDE5 and PDE6 assays, [8-^3H]Guanosine 3′,5′-cyclic phosphate (Amersham Pharmacia Biotech, code TRK.392) was added to give 0.05 uCi per well and ˜36 nM final concentration. Plates, e.g. containing approx. 100 ul volume of assay mixture, were mixed on an orbital shaker for 5 minutes and incubated at ambient temperature for 1 hour. Phosphodiesterase SPA beads (Amersham Pharmacia Biotech, code RPNQ 0150) were added ([…] per well) to terminate the assay. Plates were sealed and shaken and allowed to stand at ambient temperature for 35 minutes to 1 hour (preferably 35 minutes) to allow the beads to settle. Bound radioactive product was measured using a WALLAC TRILUX 1450 Microbeta scintillation counter. For inhibition curves, 10 concentrations (1.5 nM-30 uM) of each compound were assayed. Curves were analysed using ActivityBase and XLfit (ID. Business Solutions Limited, 2 Ocean Court, Surrey Research Park, Guildford, Surrey GU2 7QB, United Kindgom) Results were expressed as pIC50 values.
The ability of compounds to inhibit catalytic activity at PDE4B (human recombinant) or PDE4D (human recombinant) was determined by IMAP Fluorescence Polarisation ([…]) assay (IMAP Explorer kit, available from Molecular Devices Corporation, Sunnydale, Calif., USA; Molecular Devices code: R^8062) in 384-well format. The IMAP FP assay is able to measure PDE activity in an homogenous, non-radioactive assay format. The FP assay uses the ability of immobilised trivalent metal cations, coated onto nanoparticles (tiny beads), to bind the phosphate group of Fl-AMP that is produced on the hydrolysis of fluorescein-labelled (Fl) cyclic adenosine mono-phosphate (Fl-cAMP) to the non-cyclic Fl-AMP form. […] Binding of Fl-AMP product to the beads (coated with the immobilised trivalent cations) slows the rotation of the bound Fl-AMP and leads to an increase in the fluorescence polarisation ratio of parallel to perpendicular light. Inhibition of the PDE reduces/inhibits this signal increase. […]

T1 sequence (Q07343 1-564 isoform Q07343-2): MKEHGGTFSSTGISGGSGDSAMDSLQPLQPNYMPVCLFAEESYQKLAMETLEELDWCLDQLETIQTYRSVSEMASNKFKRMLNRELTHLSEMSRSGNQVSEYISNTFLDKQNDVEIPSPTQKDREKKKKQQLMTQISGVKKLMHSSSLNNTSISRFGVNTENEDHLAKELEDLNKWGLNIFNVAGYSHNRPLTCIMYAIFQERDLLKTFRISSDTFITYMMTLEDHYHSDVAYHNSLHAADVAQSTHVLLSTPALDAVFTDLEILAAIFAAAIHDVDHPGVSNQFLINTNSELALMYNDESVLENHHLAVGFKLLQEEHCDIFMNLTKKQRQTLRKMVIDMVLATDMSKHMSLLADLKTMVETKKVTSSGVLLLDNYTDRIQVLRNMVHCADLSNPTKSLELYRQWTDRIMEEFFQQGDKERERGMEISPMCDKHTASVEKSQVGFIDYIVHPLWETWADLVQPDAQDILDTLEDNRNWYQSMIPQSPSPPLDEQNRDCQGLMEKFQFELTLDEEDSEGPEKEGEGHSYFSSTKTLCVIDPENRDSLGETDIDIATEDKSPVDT

SMILES	IC50
CCn1ncc2c(NC3CCC(=NO)CC3)c(C(=O)NCc3ccc(C(F)(F)F)cc3)cnc21 (stereo not drawn) [Example 686, 1-Ethyl-4-{[4-(hydroxyimino)cyclohexyl]amino}-N-{[4-(trifluoromethyl)phenyl]methyl}-1H-pyrazolo[3,4-b]pyridine-5-carboxamide]	0.1 to 6.31 nM
CCn1ncc2c(NC3CCOCC3)c(C(=O)NCc3ccc(S(C)(=O)=O)cc3)cnc21 [Example 100, 1-Ethyl-N-[4-(methylsulfonyl)benzyl]-4-(tetrahydro-2H-pyran-4-ylamino)-1H-pyrazolo[3,4-b]pyridine-5-carboxamide]	0.1 to 6.31 nM
CCn1ncc2c(NC3CCOCC3)c(C(=O)NCc3ccc(Cl)cc3C)cnc21 [Example 494, N-[(4-Chloro-2-methylphenyl)methyl]-1-ethyl-4-(tetrahydro-2H-pyran-4-ylamino)-1H-pyrazolo[3,4-b]pyridine-5-carboxamide]	0.1 to 6.31 nM
CCn1ncc2c(NC3CCC(=O)CC3)c(C(=O)NCc3ccc(C(F)(F)F)cc3)cnc21 [Example 267, 1-Ethyl-4-[(4-oxocyclohexyl)amino]-N-{[4-(trifluoromethyl)phenyl]methyl}-1H-pyrazolo[3,4-b]pyridine-5-carboxamide]	0.1 to 6.31 nM
CCn1ncc2c(NC3CCC(=O)CC3)c(C(=O)NCc3ccc(Cl)cc3C)cnc21 [Example 679, N-[(4-Chloro-2-methylphenyl)methyl]-1-ethyl-4-[(4-oxocyclohexyl)amino]-1H-pyrazolo[3,4-b]pyridine-5-carboxamide]	0.1 to 6.31 nM
CCn1ncc2c(NC3CCOCC3)c(C(=O)NCc3ccc(I)cc3)cnc21 [Example 630]	0.1 to 6.31 nM
CCn1ncc2c(NC3CCOCC3)c(C(=O)NCc3ccccc3)c(C)nc21 [Example 196, N-Benzyl-1-ethyl-6-methyl-4-(tetrahydro-2H-pyran-4-ylamino)-1H-pyrazolo[3,4-b]pyridine-5-carboxamide]	12.6 nM
CCn1ncc2c(NC3CCOCC3)c(C(=O)NCc3cccc(Cl)c3Cl)cnc21 [Example 626, N-[(2,3-Dichlorophenyl)methyl]-1-ethyl-4-(tetrahydro-2H-pyran-4-ylamino)-1H-pyrazolo[3,4-b]pyridine-5-carboxamide]	0.1 to 6.31 nM
CCn1ncc2c(NC3CCC(=O)CC3)c(C(=O)NCc3ccc(C)c(Cl)c3)cnc21 [Example 678, N-[(3-Chloro-4-methylphenyl)methyl]-1-ethyl-4-[(4-oxocyclohexyl)amino]-1H-pyrazolo[3,4-b]pyridine-5-carboxamide]	0.1 to 6.31 nM
CCCn1ncc2c(NC3CCOCC3)c(C(=O)NCc3ccc(S(C)(=O)=O)cc3)cnc21 [Example 187, N-[4-(Methylsulfonyl)benzyl]-1-n-propyl-4-(tetrahydro-2H-pyran-4-ylamino)-1H-pyrazolo[3,4-b]pyridine-5-carboxamide]	12.6 to 100 nM
CCn1ncc2c(NC3CCOCC3)c(C(=O)NCc3ccc(OC)c(OC)c3)cnc21 [Example 167, N-(3,4-Dimethoxybenzyl)-1-ethyl-4-(tetrahydro-2H-pyran-4-ylamino)-1H-pyrazolo[3,4-b)pyridine-5-carboxamide]	0.1 to 6.31 nM
CCn1ncc2c(NC3CCN(C(C)=O)CC3)c(C(=O)NCc3ccccc3)cnc21 [Example 41, 4-[(1-Acetylpiperidin-4-yl)amino]-N-benzyl-1-ethyl-1H-pyrazolo[3,4-b]pyridine-5-carboxamide]	12.6 to 100 nM
CCn1ncc2c(NC3CCOCC3)c(C(=O)NCc3ccc(C)cc3C)cnc21 [Example 584, N-[(2,4-Dimethylphenyl)methyl]-1-ethyl-4-(tetrahydro-2H-pyran-4-ylamino)-1H-pyrazolo[3,4-b]pyridine-5-carboxamide]	0.1 to 6.31 nM
CCC(CC)CNC(=O)c1cnc2c(cnn2CC)c1NC1CCOCC1 [Example 44, 1-Ethyl-N-(2-ethylbutyl)-4-(tetrahydro-2H-pyran-4-ylamino)-1H-pyrazolo[3,4-b]pyridine-5-carboxamide]	12.6 to 100 nM
CCn1ncc2c(NC3CCCCC3)c(C(=O)NCc3ccccc3)cnc21 [Example 40, N-Benzyl-4-(cyclohexylamino)-1-ethyl-1H-pyrazolo[3,4-b]pyridine-5-carboxamide]	5.01 nM
CCC(CC)CNC(=O)c1cnc2c(cnn2CC)c1NC1CCCCC1 [Example 43, 4-(Cyclohexylamino)-1-ethyl-N-(2-ethylbutyl)-1H-pyrazolo[3,4-b]pyridine-5-carboxamide]	12.6 to 100 nM
CCn1ncc2c(NC3CCC(=NO)CC3)c(C(=O)NCc3ccc(OC)cc3)cnc21 (stereo not drawn) [Example 653, 1-Ethyl-4-{[4-(hydroxyimino)cyclohexyl]amino}-N-{[4-(methyloxy)phenyl]methyl}-1H-pyrazolo[3,4-b]pyridine-5-carboxamide]	0.1 to 6.31 nM
CCn1ncc2c(NC3CCC(=NO)CC3)c(C(=O)NCc3cccc(Cl)c3Cl)cnc21 (stereo not drawn) [Example 682, N-[(2,3-Dichlorophenyl)methyl]-1-ethyl-4-{[4-(hydroxyimino)cyclohexyl]amino}-1H-pyrazolo[3,4-b]pyridine-5-carboxamide]	0.1 to 6.31 nM
CCn1ncc2c(NC3CCOCC3)c(C(=O)NCc3ccc(Cl)cc3F)cnc21 [Example 622, N-[(4-Chloro-2-fluorophenyl)methyl]-1-ethyl-4-(tetrahydro-2H-pyran-4-ylamino)-IH-pyrazolo[3,4-b]pyridine-5-carboxamide]	0.1 to 6.31 nM
CCn1ncc2c(NC3CCC(=O)CC3)c(C(=O)NCc3ccc(OC)cc3)cnc21 [Example 263]	0.1 to 6.31 nM
CCn1ncc2c(NC3CCC(=NO)CC3)c(C(=O)NCc3ccc(C)c(C)c3)cnc21 (stereo not drawn) [Example 681, N-[(3,4-dimethylphenyl)methyl]-1-ethyl-4-{[4-(hydroxyimino)cyclohexyl]amino}-1H-pyrazolo[3,4-b]pyridine-5-carboxamide]	0.1 to 6.31 nM
CCn1ncc2c(NC3CCOCC3)c(C(=O)NCc3ccc(Br)cc3)cnc21 [Example 628, N-[(4-Bromophenyl)methyl]-1-ethyl-4-(tetrahydro-2H-pyran-4-ylamino)-1H-pyrazolo[3,4-b]pyridine-5-carboxamide]	0.1 to 6.31 nM
CCn1ncc2c(NC3CCOCC3)c(C(=O)NCc3ccccc3I)cnc21 [Example 638, 1-Ethyl-N-[(2-iodophenyl)methyl]-4-(tetrahydro-2H-pyran-4-ylamino)-1H-pyrazolo[3,4-b]pyridine-5-carboxamide]	0.1 to 6.31 nM
CCn1ncc2c(NC3CCOCC3)c(C(=O)NCc3cccc(OC(F)F)c3)cnc21 [Example 498, N-({3-[(Difluoromethyl)oxy]phenyl}methyl)-1-ethyl-4-(tetrahydro-2H-pyran-4-ylamino)-1H-pyrazolo[3,4-b]pyridine-5-carboxamide]	0.1 to 6.31 nM
CCn1ncc2c(NC3CCOCC3)c(C(=O)NCc3ccc(C)cc3)cnc21 [Example 528, 1-Ethyl-N-[(4-methylphenyl)methyl]-4-(tetrahydro-2H-pyran-4-ylamino)-1H-pyrazolol[3,4-b]pyridine-5-carboxamide]	0.1 to 6.31 nM
CCn1ncc2c(NC3CCCCC3)c(C(=O)Nc3ccc(F)cc3)cnc21 [Example 48, 4-(Cyclohexylamino)-1-ethyl-N-(4-fluorophenyl)-1H-pyrazolo[3,4-b]pyridine-5-carboxamide]	12.6 to 100 nM
CCn1ncc2c(NC3CCCC3)c(C(=O)Nc3ccc(F)cc3)cnc21 [Example 47, 4-(Cyclopentylamino)-1-ethyl-N-(4-fluorophenyl)-1H-pyrazolo[3,4-b]pyridine-5-carboxamide]	12.6 to 100 nM
